What was measured:
hypothalamic neurons = test: Fluoro-Jade B staining of organotypic hypothalamus slices; assay type: cell-based, db/db mice; settings: 500 nM, 48 h incubation; db/db hypothalamus slices
Method: Fluoro-Jade b (F-Jb) stains degenerating neurons. […] 48 h incubation with 500 nM ELV34 elicited neuroprotection that was reflected in the decrease of F-Jb signal (a).

[1] = methyl ester or sodium salt; administered 1 hour following 2 hours of ischemia; cited from earlier work
[2] = system: human diabetic and non-diabetic adipocytes; test: TP53 and IL8 expression (Taqman Real time PCR) in human adipocytes treated with IL1β; assay type: cell-based
Method: A) experimental design. B) expression levels of TP53 and IL8 in human diabetic and non-diabetic adipocytes by the means of Taqman Real time PCR.
IL1β is a cytokine that induce insulin resistance in adipocytes 18 • Similarly, IL8 was elevated by IL1β and brought down around 40 folds by 500 nM ELV34 in both diabetic and non-diabetic adipocytes. Even though the mechanisms are unknown ELV34 can be a therapeutic agent to stop or halt damaging signaling observed in diabetic patients.

[3] = system: hypothalamus, SAT and VAT; test: Adiponectin levels in diabetic hypothalamus and adipose tissue; design: species or system db/db mice
RPE and PRC = test: Subretinal injection of OAβ in WT mice +/- ELVs (RPE flat mount, OCT, qPCR, Western blot); assay type: in vivo; settings: for OAβ-activated senescence program (p16INK4a, MMP1, p53, p21, p27, Il-6, SASP secretome) followed by RPE and PRC demise: summary of mouse and human RPE data
Text: (A) In vivo experimental design: 6-month-old C57BL/6J WT mice were divided into 7 groups (n=12/group): non-injected, PBS, OAβ only, OAβ+ELV-N-32, OAβ+ELV-N-34, ELV-N-32 only and ELV-N-34 only. On day 3, mRNA were isolated for Real-Time PCR. On day 7, mice were subjected to OCT and then eyes enucleated and processed for whole mount RPE staining and Western blots. (B) Whole flat mount of RPE with tight junction marker, Zonula occludens-1 (ZO-1) antibody. OAβ disrupted RPE morphology. (C) OAβ effects on retina and RPE by OCT. (D) Thickness of PRC layer was thinner in OAβ injected group. (E) RPE gene expression after Oaβ (1-42) injection and treatment with ELVs. (E-G) Gene expression in the same functional group were plotted. Senescence- and AMD-related genes (E), and collagenases, gelatinase, stromelysins and others matrix metalloproteinases (MMP) (F) and autophagy (G). (H) p16INK4a, a key marker for senescence, western blots of RPE. (I) Retina apoptosis gene expression after OAβ (1-42) injection and treatment with ELVs. (*P<0.05, student t-test).
ELVs restore RPE morphology and reduce gene expression after subretinal injection of OAβ in WT mice. (A) Mice were divided into 7 groups: non-injected, PBS, OAβ only, OAβ+ELV-N-32, OAβ+ELV-N-34, ELV-N-32 only and ELV-N-34 only. On day 3, mRNA were isolated for RT-PCR. On day 7, mice were subjected to OCT and then eyes were enucleated and processed to whole mount RPE staining and Western blot. (B) Whole flat mount of RPE. OAβ disrupted RPE morphology. However, RPE were less damage in the ELVs treatment group as well as PBS, ELVs alone did non induce changes. (C) Evaluation the OAβ effects on retina and RPE by OCT. (D) The thickness of PRC was thin in the OAβ injected group. OAβ cause the cell death of PRC, as the thinner in OCT measurement. (E) RPE gene expression after OAβ (1-42) injection and treatment with ELVs. 3 days after injection, the RNAs from RPE were isolated, reverse transcribed into cDNA and subjected to RT-PCR with different primers. Genes in the same functional group were plotted in the same chart, including senescence- and AMD-related genes (E), and collagenases, gelatinase, stromelysins and others matrix metalloproteinases (MMP) (F) and autophagy (G). (H) p16INK4a western blots of RPE/Choroid. […] (I) Retina gene expression after OAβ (1-42) injection and treatment with ELVs. OAβ activates apoptosis genes in the retina. […] (*P<0.05, using student t-test comparison).
All animal experiments were performed according to ARVO Statement for the Use of Animals in Ophthalmic and Vision Research, and the protocol was approved by LSU Health New Orleans' Institutional Animal Care and Use Committee (IACUC). 6-month-old 5×FAD mice (stock number: 34848-JAX, The Jackson Laboratory, Bar Harbor, Me., USA), co-overexpress FAD mutant forms of human amyloid precursor protein (the Swedish mutation: K670N, M671L; the Florida mutation: I716V; and the London mutation: V7171) and presenilin 1 (PS1, encoded by Psen1: M146L, L286V) transgenes under transcriptional control of the neuron-specific mouse Thy1 promoter. 5×FAD mice were hemizygotes with respect to the transgenes and non-transgenic WT littermates. Genotyping was performed by PCR of tail DNA. All analyses were carried out blind with respect to the mice genotype. For the subretinal injection, 6-month-old C57BL/6J mice were anesthetized by an intraperitoneal injection of ketamine/xylazine, pupils dilated with 1.0% tropicamide (Akorn, Ill., USA); and 0.5% Proparacaine Hydrochloride (Akorn) was applied for topical anesthesia. Eyes were punctured with a 30-gauge needle between the corneoscleral junction and the ora serrata into the vitreous cavity without disturbing the lens. Compounds were delivered to the subretinal region using a 33-gauge blunt needle attached to a 5p.1 Hamilton syringe (Hamilton Company, Reno, Nev., USA) under a dissecting microscope. Non-injected mice were used as negative control while the PBS injected mice were used for sham. […]

db/db mice hypothalamus = test: IL6 (marker of SASP) induced by IL1β in diabetic mouse hypothalamus; assay type: cell-based
Text: Different effects have been observed in female and male mice.

[4] = co-injected with OAβ subretinally, then topical ELV, day 7

CC/C=C\C[C@H](O)\C=C/C=C/C=C/[C@H](O)C/C=C\C/C=C\CCCCCCCCCCCCCCC(=O)O [ELV-N-34]
F-Jb signal (degenerating neurons) (hypothalamic neurons): decrease
cell survival [1]: promoted cell survival
infarct volumes [1]: reduced infarct volumes
neurovascular unit disruption [1]: diminished neurovascular unit disruption
IL8 brought down ([2]; 500 nM, IL1β-elevated, diabetic and non-diabetic adipocytes): around 40 folds
levels of TP53 mRNA ([2]; adipocytes from diabetic patient treated with IL1β): down to non-diabetic control levels
effect of IL1β (TP53 and IL8 expression) ([2]; human diabetic adipocytes): revert the effect of IL1β
adiponectin in subcutaneous (SAT) and visceral adipose tissue (VAT) [3]: Differential effect
levels of Adiponectin ([3]; ELV34 treatment): increased
adiponectin in diabetic hypothalamus ([3]; female and males): trend of increase
PRC degeneration / ONL after ELV injected alone (RPE and PRC; ELV alone, no OAβ, subretinal): did not yield PRC degeneration
PRC protection (PRC layer, OCT) (RPE and PRC; [4]): protection of PRC
RPE morphology (ZO-1 whole flat mount) (RPE and PRC; [4]): restoration of RPE morphology
p16INK4a protein (western blot of RPE/Choroid) (RPE and PRC; elevated by OAβ injection, day 7): down regulated
OAβ-activated senescence program (p16INK4a, MMP1, p53, p21, p27, Il-6, SASP secretome) followed by RPE and PRC demise (RPE and PRC): blunt these events and elicit protection to both cells
OAβ-activated senescence program (p16INK4a, MMP1, p53, p21, p27, Il-6, SASP secretome) followed by RPE and PRC demise (RPE and PRC; listed as ELV 34): downregulatory mediators of OAβ-evoked senescence
OAβ-activated senescence program (p16INK4a, MMP1, p53, p21, p27, Il-6, SASP secretome) followed by RPE and PRC demise (RPE and PRC; listed as elovanoid 34): blunt these events and elicits protection
levels of IL6 (marker of SASP) (db/db mice hypothalamus): reduced
